Reference: ChEMBL document CHEMBL1201862, “PubChem BioAssay data set” (2004)
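All cell lines were grown in 96-well plates and treated with compound for 48 hours. GI50: concentration for 50% inhibition of growth.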 Calls of active or inactive are those of the source. Rule as the data show it: active = GI50 up to about 1.1 µM and inactive = higher.

Assays:
Assay in all cases: DTP human tumour cell line panel, 48 h
786-0 = tested on: 786-0
A549 = tested on: A549
BT-549 = tested on: BT-549
CCRF-CEM = tested on: CCRF-CEM
EKVX = tested on: EKVX
HCT-116 = tested on: HCT-116
K562 = tested on: K562
M14 = tested on: M14
MOLT-4 = tested on: MOLT-4
Malme-3M = tested on: Malme-3M
NCI-H460 = tested on: NCI-H460
OVCAR-4 = tested on: OVCAR-4
RXF 393 = tested on: RXF 393
SF-268 = tested on: SF-268
SK-MEL-5 = tested on: SK-MEL-5
T47D = tested on: T47D
TK-10 = tested on: TK-10
UACC-62 = tested on: UACC-62
SF-539 = tested on: SF-539
NCI-H522 = tested on: NCI-H522

COc1ccc(/C=N/NC(=O)c2cnc3[nH]c(=O)n(C)c(=O)c3c2)cc1
GI50 (786-0): 34.4 µM (inactive) | GI50 (A549): > 100 µM (inactive) | GI50 (BT-549): > 100 µM (inactive) | GI50 (CCRF-CEM): > 100 µM (inactive) | GI50 (EKVX): > 100 µM (inactive) | GI50 (HCT-116): 57.5 µM (inactive) | GI50 (K562): > 100 µM (inactive) | GI50 (M14): > 100 µM (inactive) | GI50 (MOLT-4): > 100 µM (inactive) | GI50 (Malme-3M): > 100 µM (inactive) | GI50 (NCI-H460): > 100 µM (inactive) | GI50 (OVCAR-4): > 100 µM (inactive) | GI50 (RXF 393): 38.3 µM (inactive) | GI50 (SF-268): 45.2 µM (inactive) | GI50 (SK-MEL-5): > 100 µM (inactive) | GI50 (T47D): > 100 µM (inactive) | GI50 (TK-10): 46.5 µM (inactive) | GI50 (UACC-62): 80.2 µM (inactive)

CCOC(=O)c1nc2ccc(C(F)(F)F)cc2nc1Oc1cc(OC)cc(OC)c1
GI50 (786-0): > 100 µM (inactive) | GI50 (A549): > 100 µM (inactive) | GI50 (BT-549): > 100 µM (inactive) | GI50 (CCRF-CEM): > 100 µM (inactive) | GI50 (EKVX): > 100 µM (inactive) | GI50 (HCT-116): > 100 µM (inactive) | GI50 (K562): > 100 µM (inactive) | GI50 (M14): > 100 µM (inactive) | GI50 (MOLT-4): > 100 µM (inactive) | GI50 (Malme-3M): 35.8 µM (inactive) | GI50 (NCI-H460): 60.5 µM (inactive) | GI50 (OVCAR-4): 26.4 µM (inactive) | GI50 (RXF 393): > 100 µM (inactive) | GI50 (SF-268): 93.3 µM (inactive) | GI50 (SF-539): 57.1 µM (inactive) | GI50 (SK-MEL-5): 29 µM (inactive) | GI50 (T47D): > 100 µM (inactive) | GI50 (TK-10): > 100 µM (inactive) | GI50 (UACC-62): > 100 µM (inactive)

O=C1Oc2ccccc2C(=O)/C1=C/N1C(=O)N/C(=C\c2cccc(O)c2)C1=O
GI50 (786-0): 74.8 µM (inactive) | GI50 (A549): > 100 µM (inactive) | GI50 (BT-549): 21.8 µM (inactive) | GI50 (EKVX): > 100 µM (inactive) | GI50 (HCT-116): 76 µM (inactive) | GI50 (M14): 83.8 µM (inactive) | GI50 (MOLT-4): 86.5 µM (inactive) | GI50 (NCI-H460): 59 µM (inactive) | GI50 (OVCAR-4): 85.9 µM (inactive) | GI50 (SF-539): 99.5 µM (inactive) | GI50 (SK-MEL-5): 70.8 µM (inactive) | GI50 (T47D): 54.2 µM (inactive) | GI50 (TK-10): 46.1 µM (inactive)

CC(C(N)C(=O)NC(C(=O)O)C1OC(n2ccc(=O)[nH]c2=O)C(O)C1O)C(O)c1ccc(O)cn1 (configuration not stated)
GI50 (786-0): > 100 µM (inactive) | GI50 (A549): > 100 µM (inactive) | GI50 (BT-549): > 100 µM (inactive) | GI50 (CCRF-CEM): > 100 µM (inactive) | GI50 (EKVX): > 100 µM (inactive) | GI50 (HCT-116): > 100 µM (inactive) | GI50 (M14): > 100 µM (inactive) | GI50 (MOLT-4): > 100 µM (inactive) | GI50 (NCI-H460): > 100 µM (inactive) | GI50 (NCI-H522): > 100 µM (inactive) | GI50 (SF-268): > 100 µM (inactive) | GI50 (SF-539): > 100 µM (inactive) | GI50 (SK-MEL-5): > 100 µM (inactive) | GI50 (T47D): > 100 µM (inactive) | GI50 (TK-10): > 100 µM (inactive) | GI50 (UACC-62): > 100 µM (inactive)

CCOC(=O)/C=C(/C(=O)OCC)n1ccc(=O)n(Cc2cn(COCCOC(C)=O)nn2)c1=O
GI50 (786-0): 21.7 µM (inactive) | GI50 (A549): > 100 µM (inactive) | GI50 (BT-549): 16.4 µM (inactive) | GI50 (CCRF-CEM): 2.14 µM (inactive) | GI50 (EKVX): 16.9 µM (inactive) | GI50 (HCT-116): 31.6 µM (inactive) | GI50 (K562): 19.1 µM (inactive) | GI50 (MOLT-4): 17.3 µM (inactive) | GI50 (NCI-H460): 15.6 µM (inactive) | GI50 (NCI-H522): 4.54 µM (inactive) | GI50 (OVCAR-4): 22.9 µM (inactive) | GI50 (RXF 393): 25.6 µM (inactive) | GI50 (SF-268): 18.2 µM (inactive) | GI50 (SF-539): 20.3 µM (inactive) | GI50 (SK-MEL-5): 25.8 µM (inactive) | GI50 (T47D): 32.1 µM (inactive) | GI50 (TK-10): 16.8 µM (inactive) | GI50 (UACC-62): 18.3 µM (inactive)

N#Cc1nc(Cc2ccccc2)oc1N
GI50 (786-0): > 100 µM (inactive) | GI50 (A549): > 100 µM (inactive) | GI50 (BT-549): > 100 µM (inactive) | GI50 (CCRF-CEM): 44.3 µM (inactive) | GI50 (EKVX): > 100 µM (inactive) | GI50 (HCT-116): > 100 µM (inactive) | GI50 (K562): 42.1 µM (inactive) | GI50 (M14): > 100 µM (inactive) | GI50 (MOLT-4): > 100 µM (inactive) | GI50 (Malme-3M): > 100 µM (inactive) | GI50 (NCI-H460): > 100 µM (inactive) | GI50 (OVCAR-4): > 100 µM (inactive) | GI50 (RXF 393): > 100 µM (inactive) | GI50 (SF-268): > 100 µM (inactive) | GI50 (SF-539): > 100 µM (inactive) | GI50 (SK-MEL-5): > 100 µM (inactive) | GI50 (T47D): > 100 µM (inactive) | GI50 (TK-10): > 100 µM (inactive)

CCOC(=O)CN1CCNCCN(CC(=O)OCC)CCNCC1
GI50 (786-0): > 100 µM (inactive) | GI50 (A549): > 100 µM (inactive) | GI50 (BT-549): > 100 µM (inactive) | GI50 (CCRF-CEM): > 100 µM (inactive) | GI50 (EKVX): > 100 µM (inactive) | GI50 (HCT-116): > 100 µM (inactive) | GI50 (K562): 80.5 µM (inactive) | GI50 (MOLT-4): > 100 µM (inactive) | GI50 (NCI-H460): 90.4 µM (inactive) | GI50 (NCI-H522): > 100 µM (inactive) | GI50 (OVCAR-4): > 100 µM (inactive) | GI50 (RXF 393): > 100 µM (inactive) | GI50 (SF-539): > 100 µM (inactive) | GI50 (SK-MEL-5): > 100 µM (inactive) | GI50 (T47D): > 100 µM (inactive) | GI50 (TK-10): > 100 µM (inactive) | GI50 (UACC-62): > 100 µM (inactive)

O=C1c2cc([N+](=O)[O-])ccc2NC2C(O)c3ccccc3N12 (configuration not stated)
GI50 (786-0): 25.2 µM (inactive) | GI50 (A549): 35.7 µM (inactive) | GI50 (BT-549): 22.8 µM (inactive) | GI50 (EKVX): 0.619 µM (active) | GI50 (HCT-116): 30.8 µM (inactive) | GI50 (K562): 22.2 µM (inactive) | GI50 (M14): 47.4 µM (inactive) | GI50 (MOLT-4): 19.7 µM (inactive) | GI50 (NCI-H460): 26.4 µM (inactive) | GI50 (NCI-H522): 16.2 µM (inactive) | GI50 (OVCAR-4): 19.7 µM (inactive) | GI50 (RXF 393): 16.9 µM (inactive) | GI50 (SF-268): 27.2 µM (inactive) | GI50 (SF-539): 29.3 µM (inactive) | GI50 (SK-MEL-5): 38 µM (inactive) | GI50 (T47D): 14.2 µM (inactive) | GI50 (TK-10): 13.2 µM (inactive) | GI50 (UACC-62): 3.45 µM (inactive)
